Source: ChEMBL document CHEMBL1153036, “Structure-based de novo design and biochemical evaluation of novel Cdc25 phosphatase inhibitors” (Bioorg Med Chem Lett, 2009)
pIC50: −log10 of the molar value.

Experiments:
[1] = molecular target: T1, M-phase inducer phosphatase 1 (Homo sapiens, UniProt P30304); assay: Inhibition of N-terminal 6xHis-tagged human Cdc25A (336-523) catalytic domain expressed in Escherichia coli after 20 mins by fluorescent plate reader assay
T1 sequence (P30304 whole entry): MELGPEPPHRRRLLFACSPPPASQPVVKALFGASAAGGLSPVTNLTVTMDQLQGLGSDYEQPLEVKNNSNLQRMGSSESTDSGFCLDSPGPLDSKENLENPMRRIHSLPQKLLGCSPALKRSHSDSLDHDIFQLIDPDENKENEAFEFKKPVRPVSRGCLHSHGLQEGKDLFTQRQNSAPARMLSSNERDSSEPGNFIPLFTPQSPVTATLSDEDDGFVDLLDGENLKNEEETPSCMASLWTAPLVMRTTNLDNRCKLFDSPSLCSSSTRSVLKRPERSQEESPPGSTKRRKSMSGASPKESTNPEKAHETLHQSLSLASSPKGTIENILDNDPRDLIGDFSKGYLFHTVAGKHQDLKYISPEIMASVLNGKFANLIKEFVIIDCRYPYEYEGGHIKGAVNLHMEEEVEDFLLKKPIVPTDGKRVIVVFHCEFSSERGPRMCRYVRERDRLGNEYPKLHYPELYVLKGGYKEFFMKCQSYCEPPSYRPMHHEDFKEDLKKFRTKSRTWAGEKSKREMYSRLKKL

[2] = molecular target: T2, M-phase inducer phosphatase 2 (Homo sapiens, UniProt P30305); assay: Inhibition of N-terminal 6xHis-tagged (378-566) catalytic domain of Cdc25B expressed in Escherichia coli after 20 mins by fluorescent plate reader assay
T2 sequence (P30305 whole entry): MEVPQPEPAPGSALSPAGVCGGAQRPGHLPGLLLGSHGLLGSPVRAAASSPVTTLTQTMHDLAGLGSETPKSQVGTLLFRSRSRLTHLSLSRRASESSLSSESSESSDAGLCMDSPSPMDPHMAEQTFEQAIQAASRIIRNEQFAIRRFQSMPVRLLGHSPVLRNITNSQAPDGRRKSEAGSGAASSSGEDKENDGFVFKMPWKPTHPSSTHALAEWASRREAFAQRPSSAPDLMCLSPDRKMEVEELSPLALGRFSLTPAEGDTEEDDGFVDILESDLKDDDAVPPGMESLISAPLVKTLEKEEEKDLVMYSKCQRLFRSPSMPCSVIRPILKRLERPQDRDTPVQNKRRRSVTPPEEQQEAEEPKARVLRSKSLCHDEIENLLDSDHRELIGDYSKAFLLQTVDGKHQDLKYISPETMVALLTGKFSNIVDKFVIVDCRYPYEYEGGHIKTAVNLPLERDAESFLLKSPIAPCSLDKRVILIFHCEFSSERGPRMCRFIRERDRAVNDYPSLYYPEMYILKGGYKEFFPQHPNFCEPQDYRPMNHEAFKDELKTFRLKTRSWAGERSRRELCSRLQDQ

| pIC50 [1] | pIC50 [2] | Compound |
| --- | --- | --- |
| 5.04 | 5.49 | O=C1N=C(Nc2cccc(Cl)c2)S/C1=C\C=C\c1ccco1 |
| 4.76 | 5.22 | CCn1c(SCC(=O)c2ccc(Cl)cc2)nnc1-c1cccnc1 |
| 5.11 | 5.57 | O=C1N=C(Nc2cccc(Br)c2)S/C1=C\C=C\c1ccco1 |
| 4.90 | 5.59 | Oc1nc(Nc2ccc(Cl)cc2Cl)sc1/C=C1\C=Nc2ccccc21 |
| 4.84 | 5.43 | Cn1cccc1/C=C1\SC(Nc2ccc(F)cc2)=NC1=O |
| 5.15 | 5.74 | Cc1ccc(/N=C2N=C(O)/C(=C/C=C/c3ccco3)S\2)cc1C |
| 4.90 | 5.64 | O=C1N=C(Nc2cc(Cl)cc(Cl)c2)S/C1=C\c1c[nH]c2ccccc12 |
| 4.84 | 5.28 | C=Cn1c(SCC(=O)c2ccc(Cl)cc2)nnc1-c1ccco1 |
| 4.76 | 5.29 | CC(=C/c1ccccc1)/C=C1\SC(Nc2ccc(Br)cc2)=NC1=O |
| 4.89 | 5.70 | Cn1c(SCC(=O)c2ccc(-c3ccccc3)cc2)nnc1-c1ccco1 |
| 5.39 | 5.64 | O=C1N=C(Nc2cc(Cl)cc(Cl)c2)S/C1=C\C=C\c1ccco1 |
| 5.17 | 5.35 | O=C1N=C(Nc2ccc(Cl)cc2Cl)S/C1=C\C=C\c1ccco1 |
| 5.04 | 5.33 | COc1ccc(-n2c(SCC(=O)c3ccc(O)c(O)c3)nnc2-c2ccc(C)cc2)cc1 |
| 5.29 | 5.92 | CC(=C/c1ccccc1)/C=C1\SC(Nc2cc(Cl)cc(Cl)c2)=NC1=O |
| 5.15 | 5.60 | Cc1ccc(-c2nnc(SCC(=O)c3ccc(O)c(O)c3)n2-c2ccccc2)cc1 |
| 5.09 | 5.64 | CC(=C/c1ccccc1)/C=C1\SC(Nc2ccc(C)c(C)c2)=NC1=O |
| 4.99 | 5.41 | CC(=C/c1ccccc1)/C=C1\SC(Nc2ccccc2Cl)=NC1=O |
| 5.00 | 5.68 | O=C1N=C(Nc2ccccc2Cl)S/C1=C\C=C\c1ccco1 |
| 4.88 | 5.38 | Cn1c(SCC(=O)c2ccc(-c3ccccc3)cc2)nnc1-c1ccncc1 |
| 4.51 | 5.05 | O=C1N=C(Nc2ccc(F)cc2)S/C1=C\c1cccs1 |
| 4.89 | 5.48 | CC(=C/c1ccccc1)/C=C1\SC(Nc2cccc(Cl)c2)=NC1=O |
| 5.33 | 5.64 | Cc1ccc(-c2nnc(SCC(=O)c3ccc(O)c(O)c3)n2Cc2ccco2)cc1 |
| 4.81 | 5.51 | Cn1cccc1/C=C1\SC(Nc2ccc(Cl)cc2)=NC1=O |
| 4.95 | 5.36 | Cn1c(SCC(=O)c2ccc([N+](=O)[O-])cc2)nnc1-c1cccc(Cl)c1 |
| 5.11 | 5.55 | O=C1N=C(Nc2cccc(O)c2)S/C1=C\c1cccs1 |
| 4.94 | 5.80 | O=C(CSc1nnc(-c2ccc(Cl)cc2)n1-c1ccccc1)c1ccc(O)c(O)c1 |
| 4.72 | 5.27 | Cn1c(SCC(=O)c2ccc([N+](=O)[O-])cc2)nnc1-c1cccc(NC(=O)c2ccccc2F)c1 |
| 4.95 | 5.36 | O=C1N=C(Nc2ccc(Cl)cc2)S/C1=C\c1cccs1 |
| 5.22 | 5.77 | COc1ccc(-c2nnc(SCC(=O)c3ccc(O)c(O)c3)n2-c2ccccc2)cc1 |
| 5.21 | 5.68 | O=C1N=C(Nc2cccc(Cl)c2Cl)S/C1=C\C=C\c1ccco1 |
